For this assay, the target named is T1, Microsomal triglyceride transfer protein large subunit (Homo sapiens) (UniProt P55157).
T1 sequence (whole entry): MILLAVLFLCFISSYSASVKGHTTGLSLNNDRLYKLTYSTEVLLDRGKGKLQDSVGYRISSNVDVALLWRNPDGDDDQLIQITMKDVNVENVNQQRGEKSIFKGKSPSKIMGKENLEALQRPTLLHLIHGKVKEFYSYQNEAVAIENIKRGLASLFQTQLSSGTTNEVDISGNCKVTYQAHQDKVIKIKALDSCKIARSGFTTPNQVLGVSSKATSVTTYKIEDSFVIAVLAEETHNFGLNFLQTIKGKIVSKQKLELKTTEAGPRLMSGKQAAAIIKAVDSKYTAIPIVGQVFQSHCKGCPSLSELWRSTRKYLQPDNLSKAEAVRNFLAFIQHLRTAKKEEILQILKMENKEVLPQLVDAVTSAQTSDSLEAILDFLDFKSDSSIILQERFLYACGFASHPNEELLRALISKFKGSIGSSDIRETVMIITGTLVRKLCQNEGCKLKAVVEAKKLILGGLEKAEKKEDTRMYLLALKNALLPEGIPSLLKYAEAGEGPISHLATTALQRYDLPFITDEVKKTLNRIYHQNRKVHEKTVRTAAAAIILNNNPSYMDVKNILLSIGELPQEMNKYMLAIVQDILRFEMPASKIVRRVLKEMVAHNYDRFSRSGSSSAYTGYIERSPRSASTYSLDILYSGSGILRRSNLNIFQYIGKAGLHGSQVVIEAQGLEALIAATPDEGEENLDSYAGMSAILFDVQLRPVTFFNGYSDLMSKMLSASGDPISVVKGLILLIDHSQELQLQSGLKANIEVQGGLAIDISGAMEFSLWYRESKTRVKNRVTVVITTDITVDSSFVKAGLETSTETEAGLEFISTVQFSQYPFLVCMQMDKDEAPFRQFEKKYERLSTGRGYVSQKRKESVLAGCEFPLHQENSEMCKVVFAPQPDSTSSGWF
Kind of assay: Inhibition of intestinal MTP in rat by murine gut retention assay. The class given is functional. The conditions noted are these: target entry is the homologue from another species.

The record followed here is ChEMBL document CHEMBL1148659, “Discovery of potent and orally active MTP inhibitors as potential anti-obesity agents” (Bioorg Med Chem Lett, 2006).

`Cc1cc(C(=O)N[C@H](C(=O)N2CCCC2)c2ccccc2)ccc1NC(=O)c1ccccc1-c1ccc(C(F)(F)F)cc1` came in with an ED25 of 3 mg/kg.
Then `O=C(N[C@H](C(=O)N1CCCC1)c1ccccc1)c1ccc(NC(=O)c2ccccc2-c2ccc(C(F)(F)F)cc2)nc1`, with 6.93 mg/kg.
